ChEMBL document CHEMBL1201862, “PubChem BioAssay data set” (2004)
The source made the active and inactive calls.

Legend:
Melanocortin receptor 4 = Melanocortin receptor 4 (Homo sapiens, UniProt P32245); test: inhibitors of MC4R cAMP signaling – cell-based, TR-FRET, biased antagonists, dose response (AID 602298); assay type: functional;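 also: antagonist potency against agonist-stimulated cAMP production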
[1] = cAMP pathway inhibition in counterscreen cell line – TR-FRET cAMP detection, counter-screen for MC4R biased antagonist project, dose response (AID 602305); assay type: functional, cell-based;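 also: U2OS cells stimulated with forskolin near its EC80 as the cAMP inducer; potency is for inhibition of forskolin-stimulated cAMP signaling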
[2] = target: T1, Apoptotic protease-activating factor 1 (Homo sapiens, UniProt O14727); test: SAR analysis of small molecule Activators of Apaf-1 in a Fluorescent assay.; assay type: functional; conditions: read-out: EC50_Mean;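 also: caspase-3 cleavage of fluorogenic Rh110 DEVD substrate downstream of apoptosome activation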
T1 sequence (O14727 whole entry): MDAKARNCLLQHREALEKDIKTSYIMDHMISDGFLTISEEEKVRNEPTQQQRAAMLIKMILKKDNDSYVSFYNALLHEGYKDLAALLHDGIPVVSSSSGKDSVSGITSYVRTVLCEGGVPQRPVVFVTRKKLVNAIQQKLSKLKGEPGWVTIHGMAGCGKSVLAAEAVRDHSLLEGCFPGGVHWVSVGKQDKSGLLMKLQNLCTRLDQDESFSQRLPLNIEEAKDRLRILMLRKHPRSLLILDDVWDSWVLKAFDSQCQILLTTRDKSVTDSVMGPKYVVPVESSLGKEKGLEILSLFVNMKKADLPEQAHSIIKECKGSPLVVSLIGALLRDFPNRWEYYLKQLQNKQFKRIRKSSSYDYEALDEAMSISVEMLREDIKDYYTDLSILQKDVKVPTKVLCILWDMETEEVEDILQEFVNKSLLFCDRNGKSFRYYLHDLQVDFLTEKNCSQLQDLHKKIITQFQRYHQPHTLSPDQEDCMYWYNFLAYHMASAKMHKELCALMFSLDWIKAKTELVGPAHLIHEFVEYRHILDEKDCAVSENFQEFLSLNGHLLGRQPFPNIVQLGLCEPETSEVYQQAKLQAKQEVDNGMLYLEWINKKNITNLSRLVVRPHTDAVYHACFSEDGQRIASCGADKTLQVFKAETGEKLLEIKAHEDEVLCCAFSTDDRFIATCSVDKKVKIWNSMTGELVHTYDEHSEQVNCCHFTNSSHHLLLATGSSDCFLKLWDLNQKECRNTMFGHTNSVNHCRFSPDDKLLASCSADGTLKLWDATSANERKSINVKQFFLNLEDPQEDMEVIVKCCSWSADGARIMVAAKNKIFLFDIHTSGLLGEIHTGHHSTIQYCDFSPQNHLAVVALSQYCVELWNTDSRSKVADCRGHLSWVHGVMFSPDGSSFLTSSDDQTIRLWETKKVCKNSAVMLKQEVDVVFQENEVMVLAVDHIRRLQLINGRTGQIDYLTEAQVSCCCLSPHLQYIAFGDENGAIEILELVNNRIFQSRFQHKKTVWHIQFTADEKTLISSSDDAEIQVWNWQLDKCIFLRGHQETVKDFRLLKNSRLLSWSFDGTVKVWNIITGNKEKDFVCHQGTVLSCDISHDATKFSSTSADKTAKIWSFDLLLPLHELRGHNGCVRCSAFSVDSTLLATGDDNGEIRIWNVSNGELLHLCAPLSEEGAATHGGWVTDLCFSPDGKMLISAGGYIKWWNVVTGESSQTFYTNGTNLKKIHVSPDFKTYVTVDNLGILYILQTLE

Hexokinase HKDC1 = target: T2, Hexokinase HKDC1 (Homo sapiens, UniProt Q2TB90); test: inhibition of HKDC1 glucose phosphorylation – biochemical, W721R variant, dose response (AID 504729); assay type: functional
T2 sequence (Q2TB90 whole entry): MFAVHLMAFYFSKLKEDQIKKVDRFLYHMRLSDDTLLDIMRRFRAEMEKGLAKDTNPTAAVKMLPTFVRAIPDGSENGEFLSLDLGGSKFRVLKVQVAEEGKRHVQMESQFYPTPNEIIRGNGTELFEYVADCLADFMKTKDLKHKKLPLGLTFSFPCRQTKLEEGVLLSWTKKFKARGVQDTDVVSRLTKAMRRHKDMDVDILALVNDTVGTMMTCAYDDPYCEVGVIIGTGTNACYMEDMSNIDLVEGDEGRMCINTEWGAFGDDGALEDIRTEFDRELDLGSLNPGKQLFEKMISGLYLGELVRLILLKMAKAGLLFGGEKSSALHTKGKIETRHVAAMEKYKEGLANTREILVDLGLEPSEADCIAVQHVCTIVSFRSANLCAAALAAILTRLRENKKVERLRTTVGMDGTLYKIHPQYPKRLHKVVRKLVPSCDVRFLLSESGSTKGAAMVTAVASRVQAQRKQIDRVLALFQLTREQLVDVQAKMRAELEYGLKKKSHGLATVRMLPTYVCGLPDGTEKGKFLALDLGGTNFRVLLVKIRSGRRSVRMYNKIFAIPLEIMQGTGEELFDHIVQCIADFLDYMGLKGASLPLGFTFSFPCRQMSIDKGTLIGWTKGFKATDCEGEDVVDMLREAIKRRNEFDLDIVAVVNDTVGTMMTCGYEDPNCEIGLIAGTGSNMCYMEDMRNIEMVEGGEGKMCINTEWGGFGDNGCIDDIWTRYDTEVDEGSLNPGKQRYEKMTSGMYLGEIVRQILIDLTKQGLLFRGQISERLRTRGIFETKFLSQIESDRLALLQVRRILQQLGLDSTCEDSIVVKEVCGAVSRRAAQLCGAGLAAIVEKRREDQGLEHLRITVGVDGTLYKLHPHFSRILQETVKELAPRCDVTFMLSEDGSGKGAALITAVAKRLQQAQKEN

Cytochrome P450 1A2 = target: T3, Cytochrome P450 1A2 (Homo sapiens, UniProt P05177);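 also: PubChem cytochrome P450 panel assay, CYP1A2 panel member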
T3 sequence (P05177 whole entry): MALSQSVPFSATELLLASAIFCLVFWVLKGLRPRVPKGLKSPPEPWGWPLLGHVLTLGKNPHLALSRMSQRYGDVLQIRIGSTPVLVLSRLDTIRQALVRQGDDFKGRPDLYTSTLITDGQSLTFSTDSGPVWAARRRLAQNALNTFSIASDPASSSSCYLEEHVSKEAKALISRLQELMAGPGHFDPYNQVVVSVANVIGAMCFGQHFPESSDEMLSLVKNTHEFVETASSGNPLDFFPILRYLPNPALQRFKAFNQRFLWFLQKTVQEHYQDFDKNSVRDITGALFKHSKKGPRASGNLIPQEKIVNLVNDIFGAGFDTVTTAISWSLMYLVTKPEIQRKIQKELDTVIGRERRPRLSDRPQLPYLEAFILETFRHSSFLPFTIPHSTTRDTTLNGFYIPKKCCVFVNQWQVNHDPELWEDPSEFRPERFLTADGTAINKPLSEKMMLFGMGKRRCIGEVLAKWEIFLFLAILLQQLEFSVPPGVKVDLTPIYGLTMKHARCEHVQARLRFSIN

Bcl-2-related protein A1 = target: T4, Bcl-2-related protein A1 (Mus musculus, UniProt Q07440); assay type: functional;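 also: confirmatory dose–response counterscreen on Bfl-1, used to check hits from a UBC13 polyubiquitin inhibitor campaign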
T4 sequence (Q07440 whole entry): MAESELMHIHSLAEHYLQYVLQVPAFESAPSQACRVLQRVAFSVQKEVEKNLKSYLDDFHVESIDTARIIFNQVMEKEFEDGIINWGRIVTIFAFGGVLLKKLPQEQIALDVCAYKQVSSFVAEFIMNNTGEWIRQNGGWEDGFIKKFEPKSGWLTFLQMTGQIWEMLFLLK

[3] = target: T5, Ubiquitin-conjugating enzyme E2 N (Homo sapiens, UniProt P61088); assay type: functional
T5 sequence (P61088 whole entry): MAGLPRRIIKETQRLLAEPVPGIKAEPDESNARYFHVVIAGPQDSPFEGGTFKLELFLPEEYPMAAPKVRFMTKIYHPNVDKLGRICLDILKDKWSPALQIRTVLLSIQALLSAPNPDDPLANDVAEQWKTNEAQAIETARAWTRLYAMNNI

[4] = target: ATP-dependent molecular chaperone HSP82 (Candida albicans (strain WO-1) (Yeast), UniProt C4YTQ8); test: steroid-induced GRE reporter decrease in yeast – S. cerevisiae, luminescence, Hsp90 inhibitor project, dose response (AID 2400); assay type: functional, cell-based;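 also: beta-galactosidase luminescence from glucocorticoid response element reporter as proxy for Hsp90 function; inhibitor potency where signal loss means Hsp90 inhibition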
Paired box protein Pax-8 = Paired box protein Pax-8 (Homo sapiens, UniProt Q06710); test: PAX8 transcriptional activity inhibition in RMG-I – RMG-I cells, luciferase, cherry-pick, dose response (AID 687027); assay type: functional, cell-based;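 also: luciferase reporter driven by Pax8 target thyroperoxidase promoter measured by SteadyGlo luminescence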
[5] = target: T5, Ubiquitin-conjugating enzyme E2 N; assay type: functional; remark: listed apart in the source
CAAX prenyl protease 2 = target: T6, CAAX prenyl protease 2 (Saccharomyces cerevisiae S288c, UniProt Q03530); assay type: biochemical
T6 sequence (Q03530 whole entry): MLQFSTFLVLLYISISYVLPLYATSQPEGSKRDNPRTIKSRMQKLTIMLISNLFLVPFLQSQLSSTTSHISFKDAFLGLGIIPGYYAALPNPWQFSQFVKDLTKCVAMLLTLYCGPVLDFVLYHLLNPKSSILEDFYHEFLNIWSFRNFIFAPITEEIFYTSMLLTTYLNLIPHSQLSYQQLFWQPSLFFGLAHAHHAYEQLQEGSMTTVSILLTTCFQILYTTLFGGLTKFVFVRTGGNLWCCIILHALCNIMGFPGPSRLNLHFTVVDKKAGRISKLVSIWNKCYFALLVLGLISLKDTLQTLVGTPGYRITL

Cytochrome P450 2C9 = Cytochrome P450 2C9 (Homo sapiens, UniProt P11712)
[6] = target: T7, DNA repair protein RAD52 homolog (Homo sapiens, UniProt P43351); assay type: functional, biochemical
T7 sequence (P43351 whole entry): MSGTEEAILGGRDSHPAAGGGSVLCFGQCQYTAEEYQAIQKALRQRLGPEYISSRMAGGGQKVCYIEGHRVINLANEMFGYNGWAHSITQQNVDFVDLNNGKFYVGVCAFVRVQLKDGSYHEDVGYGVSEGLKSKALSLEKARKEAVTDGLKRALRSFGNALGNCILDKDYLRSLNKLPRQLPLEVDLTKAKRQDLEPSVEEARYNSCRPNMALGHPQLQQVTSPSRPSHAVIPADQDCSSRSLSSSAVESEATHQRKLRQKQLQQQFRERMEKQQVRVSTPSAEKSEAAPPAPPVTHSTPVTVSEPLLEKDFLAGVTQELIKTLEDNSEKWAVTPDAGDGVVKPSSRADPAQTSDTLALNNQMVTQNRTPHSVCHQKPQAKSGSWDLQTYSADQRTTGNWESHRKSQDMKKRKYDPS

[7] = target: T8, Hepatocyte nuclear factor 4-alpha (Homo sapiens, UniProt P41235); assay type: functional, cell-based;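 also: biochemical luminescence-based dose-response counterscreen measuring inhibition of HNF4 dimerization, run alongside a screen for blockers of ABHD5–perilipin-5 interaction; split luciferase complementation of HNF4 fusion proteins in cell lysate measuring dimerization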
T8 sequence (P41235 whole entry): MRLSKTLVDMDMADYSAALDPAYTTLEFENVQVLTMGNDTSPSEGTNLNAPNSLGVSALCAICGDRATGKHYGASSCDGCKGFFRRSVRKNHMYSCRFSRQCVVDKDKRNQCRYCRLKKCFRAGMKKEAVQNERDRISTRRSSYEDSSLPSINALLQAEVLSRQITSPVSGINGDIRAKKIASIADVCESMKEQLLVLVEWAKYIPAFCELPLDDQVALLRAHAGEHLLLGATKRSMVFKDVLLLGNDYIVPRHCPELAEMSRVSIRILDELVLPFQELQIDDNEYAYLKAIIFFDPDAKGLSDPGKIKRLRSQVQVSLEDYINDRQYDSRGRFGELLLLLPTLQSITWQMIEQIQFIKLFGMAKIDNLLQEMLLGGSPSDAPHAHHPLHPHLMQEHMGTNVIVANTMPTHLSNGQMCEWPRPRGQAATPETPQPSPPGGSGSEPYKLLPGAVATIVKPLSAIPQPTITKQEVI

Melanocortin receptor 4, sequence (P32245 whole entry): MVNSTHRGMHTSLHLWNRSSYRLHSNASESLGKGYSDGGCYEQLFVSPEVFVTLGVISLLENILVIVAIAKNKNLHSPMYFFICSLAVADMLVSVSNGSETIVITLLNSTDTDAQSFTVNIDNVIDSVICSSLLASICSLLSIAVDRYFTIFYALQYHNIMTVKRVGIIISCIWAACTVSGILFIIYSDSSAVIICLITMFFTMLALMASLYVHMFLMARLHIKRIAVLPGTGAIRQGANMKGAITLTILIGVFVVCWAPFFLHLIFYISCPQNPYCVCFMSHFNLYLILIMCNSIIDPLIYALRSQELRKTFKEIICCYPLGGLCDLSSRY
Cytochrome P450 2C9, sequence (P11712 whole entry): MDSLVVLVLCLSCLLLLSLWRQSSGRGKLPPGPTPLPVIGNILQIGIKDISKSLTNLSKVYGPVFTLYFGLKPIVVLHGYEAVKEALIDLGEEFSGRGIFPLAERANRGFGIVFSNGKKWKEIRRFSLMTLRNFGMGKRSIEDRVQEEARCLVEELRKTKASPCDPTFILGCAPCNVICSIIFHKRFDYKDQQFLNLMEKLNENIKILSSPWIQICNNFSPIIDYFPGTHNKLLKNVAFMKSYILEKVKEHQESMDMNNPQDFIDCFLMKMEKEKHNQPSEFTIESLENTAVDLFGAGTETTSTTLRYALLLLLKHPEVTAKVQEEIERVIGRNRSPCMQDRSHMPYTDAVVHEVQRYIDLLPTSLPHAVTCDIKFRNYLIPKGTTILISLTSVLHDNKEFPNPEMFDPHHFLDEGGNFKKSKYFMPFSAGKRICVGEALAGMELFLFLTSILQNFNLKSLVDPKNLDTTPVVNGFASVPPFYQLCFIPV
ATP-dependent molecular chaperone HSP82, sequence (C4YTQ8 whole entry): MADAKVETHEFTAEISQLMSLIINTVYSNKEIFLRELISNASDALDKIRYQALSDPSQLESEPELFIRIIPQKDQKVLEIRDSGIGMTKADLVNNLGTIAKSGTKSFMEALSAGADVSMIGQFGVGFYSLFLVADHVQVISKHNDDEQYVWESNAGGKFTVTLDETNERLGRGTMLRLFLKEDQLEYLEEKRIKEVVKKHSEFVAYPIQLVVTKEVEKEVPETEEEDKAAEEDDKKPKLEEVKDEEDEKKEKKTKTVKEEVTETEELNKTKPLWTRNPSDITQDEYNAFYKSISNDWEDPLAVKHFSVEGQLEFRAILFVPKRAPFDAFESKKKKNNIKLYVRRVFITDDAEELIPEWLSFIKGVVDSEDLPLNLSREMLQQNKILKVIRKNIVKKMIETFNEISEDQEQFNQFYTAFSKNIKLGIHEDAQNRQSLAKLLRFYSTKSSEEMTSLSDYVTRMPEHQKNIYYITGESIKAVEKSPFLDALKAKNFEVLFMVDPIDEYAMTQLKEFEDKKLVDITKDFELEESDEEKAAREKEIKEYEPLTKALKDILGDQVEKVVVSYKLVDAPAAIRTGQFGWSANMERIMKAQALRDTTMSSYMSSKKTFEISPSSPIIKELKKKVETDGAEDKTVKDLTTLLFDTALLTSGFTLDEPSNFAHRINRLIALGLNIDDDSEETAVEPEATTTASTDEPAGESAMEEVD
Paired box protein Pax-8, sequence (Q06710 whole entry): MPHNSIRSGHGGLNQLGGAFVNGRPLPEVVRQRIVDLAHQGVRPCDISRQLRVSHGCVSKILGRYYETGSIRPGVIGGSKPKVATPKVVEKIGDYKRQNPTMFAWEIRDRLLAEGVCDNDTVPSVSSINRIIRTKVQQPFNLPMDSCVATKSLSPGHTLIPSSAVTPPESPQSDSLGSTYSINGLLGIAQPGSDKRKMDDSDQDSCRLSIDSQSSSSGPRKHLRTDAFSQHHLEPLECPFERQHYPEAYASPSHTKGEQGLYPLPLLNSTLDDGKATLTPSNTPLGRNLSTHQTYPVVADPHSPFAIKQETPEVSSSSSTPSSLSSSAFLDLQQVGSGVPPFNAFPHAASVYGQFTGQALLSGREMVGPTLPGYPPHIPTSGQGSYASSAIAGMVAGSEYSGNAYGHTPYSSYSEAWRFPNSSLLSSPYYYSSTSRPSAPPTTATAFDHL

| EC50 [2] | IC50 (Hexokinase HKDC1) | AC50 (Cytochrome P450 1A2) | IC50 (Bcl-2-related protein A1) | IC50 [3] | EC50 [4] | AC50 (Paired box protein Pax-8) | IC50 [5] | AC50 (CAAX prenyl protease 2) | AC50 (Cytochrome P450 2C9) | AC50 [6] | IC50 [7] | SMILES | IC50 (Melanocortin receptor 4) | IC50 [1] |
| --- | --- | --- | --- | --- | --- | --- | --- | --- | --- | --- | --- | --- | --- | --- |
| – | – | – | – | – | – | – | – | – | – | – | – | CCc1cc2ccc(OC)cc2nc1SCC(=O)N1CCN(C(=O)c2ccco2)CC1 | > 64.6 µM (inactive) | > 64.6 µM (inactive) |
| > 100 µM (inactive) | – | – | – | – | – | – | – | – | – | – | – | Cc1cccc(C)c1N1C(=O)CC2(CC(c3ccc4c(c3)OCCO4)=NO2)C1=O (stereo not given) | – | – |
| – | 8.99 µM (active) | 15.8 µM (inconclusive) | > 20 µM (inactive) | 3.01 µM (active) | > 150 µM (inactive) | 5.69 µM (active) | 2.2 µM (active) | 5.69 µM (active) | 15.8 µM (inconclusive) | 1.7 µM (active) | 23.5 µM (inactive) | [H]/N=C(\N/C(=N/[H])NCCCCCCNC(=N)NC(=N)Nc1ccc(Cl)cc1)Nc1ccc(Cl)cc1 [CHLORHEXIDINE] | 2 µM (active) | – |
